Data: patent US20190117624A1, “THERAPEUTIC AGENT FOR INFLAMMATORY BOWEL DISEASES” (DAIICHI SANKYO COMPANY, LIMITED, priority 2016, published 2019)

System: dextran sodium sulfate-induced ulcerative colitis in rats
Test: Drug efficacy on dextran sodium sulfate-induced ulcerative colitis in rats (erosion area of the large intestinal mucosa)
Format: in vivo, rat
Details: for erosion area / inhibition rate (erosion area): 14 days; for erosion area: DSS colitis rats, mean±standard error, control 330.3±15.4; for inhibition rate (erosion area): vs control group
Description: The test of drug efficacy of a TAFIa inhibitor on dextran sodium sulfate-induced ulcerative colitis in rats will be described below. This test was conducted by commissioning to NISSEI BILIS Co., Ltd.
A TAFIa inhibitor, (2S)-5-amino-2-{[1-(trans-4-methylcyclohexyl)-1H-imidazol-4-yl]methyl}valeric acid p-toluenesulfonate anhydride (hereinafter referred to as “compound A”) was dissolved in a 0.5% aqueous sodium carboxymethylcellulose solution (hereinafter referred to as “CMC-Na”) to prepare a dosing solution for oral administration of 0.6, 2, 6 and 20 mg/mL. The dosage was determined by conversion into a free form with a conversion factor of 0.6301. The chemical structure of compound A is as follows: […]
7-Week old male LEW/SsN Slc rats (Japan SLC, Inc.) were allowed to drink 3% dextran sodium sulfate (hereinafter referred to as “DSS”) freely to create ulcerative colitis models. Individuals meeting selection criteria for model animals shown in 1-3 below were selected followed by switching to free drinking of 1% aqueous DSS solution to maintain the ulcerative colitis models.
Thereafter, animals that met the selection criteria were selected.
The tests were conducted in two separate groups (the first half: 5 animals/group; the second half: 5 animals/group). The untreated individuals and the individuals meeting the above selection criteria were selected as adopted animals, and grouped into groups of 5 animals/group with the body weight as a main parameter and the hemoglobin concentration as a secondary parameter, according to stratified randomized assignment so as not to cause a difference in the average value among the groups (the total of two tests: 10 animals/group).
Administration route: Oral administration
Administration volume: 5 mL/kg
[…] Administration was conducted by masking the test groups (that is, individual identification numbers were recorded in the animal cards, and administration was conducted in a blinded manner). Note that the administration on the selection day (the first day of administration) was conducted only once in the afternoon.
Each of animals was fasted from the end of the final administration. On the day of dissection, approximately 3 mL of blood was collected from the abdominal aorta under anesthesia with pentobarbital sodium (30 mg/kg, i.p.) by using a polypropylene disposable syringe and an injection needle. Immediately after blood collection, the large intestine (the colon and the rectum) was isolated and immersed in physiological saline kept warm at approximately 37° C., and the length of the large intestine was measured in a relaxed state. Thereafter, a 10% neutral buffered formalin solution was infused into the large intestine, and the large intestine was immersed in physiological saline with the lumen expanded and temporarily fixed for 1 hour or more. After temporary fixation, the large intestine was dissected along the mesentery attachment site, immersed in a stretched state in a 10% neutral buffered formalin solution, and fixed for 1 week or more. The fixed large intestine specimen was washed with running water for approximately 5 minutes, further with distilled water three times, and then immersed in a 3% aqueous acetic acid solution for approximately 5 minutes as a pretreatment.
The large intestine specimen stained with a 1% Alcian blue solution was photographed. The photograph was captured on an image analysis device (general-purpose image processor WinROOF, Version 5.7, MITANI CORPORATION), and the area of deep blue part was measured. This measurement value was used as the erosion area.
The erosion area was expressed as mean±standard error. A significant difference test between the control group and each group was conducted by a homoscedasticity test (F-test) followed by Student's t test in the case of homoscedasticity and by Aspin-Welch's t test in the case of heteroscedasticity (significance level: 5%).

SMILES	erosion area compared to the control group (significance) (3 mg/kg orally twice a day)	erosion area (3 mg/kg orally twice a day) [mm^2]	inhibition rate (erosion area) (3 mg/kg orally twice a day) [%]	erosion area (10 mg/kg orally twice a day) [mm^2]	inhibition rate (erosion area) (10 mg/kg orally twice a day) [%]	erosion area compared to the control group (significance) (10 mg/kg orally twice a day, Student's t test P<0.05)	erosion area (30 mg/kg orally once a day) [mm^2]	inhibition rate (erosion area) (30 mg/kg orally once a day) [%]	erosion area compared to the control group (significance) (30 mg/kg orally once a day, Student's t test P<0.01)	erosion area (30 mg/kg orally twice a day) [mm^2]	inhibition rate (erosion area) (30 mg/kg orally twice a day) [%]	erosion area compared to the control group (significance) (30 mg/kg orally twice a day, Student's t test P<0.01)	erosion area (100 mg/kg orally twice a day) [mm^2]	inhibition rate (erosion area) (100 mg/kg orally twice a day) [%]	erosion area compared to the control group (significance) (100 mg/kg orally twice a day, Student's t test P<0.01)	reduction effect of the erosion area (overall conclusion) (rat ulcerative colitis model)	erosion area (300 mg/kg orally once a day) [mm^2]	inhibition rate (erosion area) (300 mg/kg orally once a day) [%]	erosion area compared to the control group (significance) (300 mg/kg orally once a day, Student's t test P<0.05)
C[C@H]1CC[C@H](n2cnc(C[C@H](CCCN)C(=O)O)c2)CC1.Cc1ccc(S(=O)(=O)O)cc1 [compound A, (2S)-5-amino-2-{[1-(trans-4-methylcyclohexyl)-1H-imidazol-4-yl]methyl}valeric acid p-toluenesulfonate anhydride]	No significant difference	291.8±13.1	11.7	281.6±11.1	14.7	significant reduction in the erosion area	264.0±7.9	20.1	significant reduction in the erosion area	262.89±13.9	20.4	significant reduction in the erosion area	261.9±12.7	20.7	significant reduction in the erosion area	significant reduction effect of the erosion area			
O=C(O)c1cc(/N=N/c2ccc(S(=O)(=O)Nc3ccccn3)cc2)ccc1O [SASP, Salazosulfapyridine, reference compound]																	261.6±22.7	20.8	significant reduction in the erosion area
